The target in this test is SMYD3 (Homo sapiens (Human), UniProt Q9H7B4). Description: SMYD3 biochemical assay (SMYD3 enzyme assay on MEKK2 protein substrate, 3H-SAM scintillation proximity assay). The conditions noted are these: read-out: SMYD3 Biochem IC50. Put shortly:
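Native full-length human SMYD3, expressed in E. coli, was preincubated with compound for 30 min at room temperature in 25 mM Tris-Cl pH 8.0, 1 mM TCEP, 0.005% BSG and 0.005% Tween 20. ³H-SAM plus GST-MEKK2 then started the reaction. It was stopped with unlabeled SAM (100 uM final), and methylated MEKK2 was read by SPA.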
Chain of SMYD3 (Q9H7B4 whole entry): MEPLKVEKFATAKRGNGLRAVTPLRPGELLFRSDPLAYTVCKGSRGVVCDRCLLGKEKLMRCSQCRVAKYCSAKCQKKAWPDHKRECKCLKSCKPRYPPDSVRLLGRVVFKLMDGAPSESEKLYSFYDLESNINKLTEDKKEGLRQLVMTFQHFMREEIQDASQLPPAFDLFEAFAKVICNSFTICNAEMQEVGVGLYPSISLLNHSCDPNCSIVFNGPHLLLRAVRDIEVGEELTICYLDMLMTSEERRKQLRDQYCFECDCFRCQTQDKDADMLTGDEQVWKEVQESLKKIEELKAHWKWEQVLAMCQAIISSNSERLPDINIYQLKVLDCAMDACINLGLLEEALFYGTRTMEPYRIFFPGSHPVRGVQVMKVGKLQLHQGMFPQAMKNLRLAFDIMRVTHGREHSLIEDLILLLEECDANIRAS
Usually IC50 stands for the concentration that inhibits the measured activity by half. In the case of `Nc1ncncc1C(=O)N[C@H]1CC[C@H](N)CC1` [compound 421, 4-amino-N-((1r,4r)-4-aminocyclohexyl)pyrimidine-5-carboxamide], the half-inhibitory concentration (IC50) is above 100 µM.
The same measure for `NCCC(=O)N[C@H]1CC[C@H](NC(=O)c2cccc(F)n2)CC1` [compound 422, N-((1r,4r)-4-(3-aminopropanamido)cyclohexyl)-6-fluoropicolinamide]: above 100 µM; for `N[C@H]1CC[C@H](NC(=O)c2ccc(O)cn2)CC1` [compound 423, N-((1r,4r)-4-aminocyclohexyl)-5-hydroxypicolinamide]: above 100 µM.
The same measure for `N[C@H]1CC[C@H](NC(=O)C2=NNC(=O)CC2)CC1` [compound 424, N-((1r,4r)-4-aminocyclohexyl)-6-oxo-1,4,5,6-tetrahydropyridazine-3-carboxamide]: above 100 µM; for `NCCC(=O)N[C@H]1CC[C@H](NC(=O)c2n[nH]c3ccccc23)CC1` [compound 425, N-((1r,4r)-4-(3-aminopropanamido)cyclohexyl)-1H-indazole-3-carboxamide]: 37.5 µM; for `N[C@H]1CC[C@H](NC(=O)Cn2ccnc2)CC1` [compound 426, N-((1r,4r)-4-aminocyclohexyl)-2-(1H-imidazol-1-yl)acetamide]: above 100 µM.
With `NCCC(=O)N[C@H]1CC[C@H](NC(=O)c2nc3ccccc3s2)CC1` [compound 427, N-((1r,4r)-4-(3-aminopropanamido)cyclohexyl)benzo[d]thiazole-2-carboxamide], the IC50 was above 100 µM.
`N[C@H]1CC[C@H](C(=O)Nc2ccc3c(c2)CC(=O)N3)CC1` [compound 428, (1r,4r)-4-amino-N-(2-oxoindolin-5-yl)cyclohexane-1-carboxamide]: the 50% inhibitory concentration (IC50) turned out to be 30.6 µM.
Take `N[C@H]1CC[C@H](NS(=O)(=O)c2ccc3c(c2)CC(=O)N3)CC1` [compound 429, N-((1r,4r)-4-aminocyclohexyl)-2-oxoindoline-5-sulfonamide]: the half-inhibitory concentration (IC50) turned out to be 14.5 µM.
Under `NCCC(=O)N[C@H]1CC[C@H](NC(=O)c2cccc3c2CC(=O)N3)CC1` [compound 430, N-((1r,4r)-4-(3-aminopropanamido)cyclohexyl)-2-oxoindoline-4-carboxamide] stands above 100 µM.
Under `Cc1nn(C(C)C(=O)N[C@H]2CC[C@H](NC(=O)CCN)CC2)c(C)c1Br` (stereo partly drawn) [compound 431, 3-amino-N-((1r,4r)-4-(2-(4-bromo-3,5-dimethyl-1H-pyrazol-1-yl)propanamido)cyclohexyl)propanamide] stands above 100 µM.
Under `CC1=NN(c2ccc(C(=O)N[C@H]3CC[C@H](NC(=O)CCN)CC3)cc2)C(=O)C1` [compound 432, N-((1r,4r)-4-(3-aminopropanamido)cyclohexyl)-4-(3-methyl-5-oxo-4,5-dihydro-1H-pyrazol-1-yl)benzamide] stands 37 µM; under `CC(NC(=O)[C@H]1C[C@H](O)CN1)C1CCN(C(=O)[C@H](C)N)CC1` (stereo partly drawn) [compound 433, (2R,4S)-N-(1-(1-(L-alanyl)piperidin-4-yl)ethyl)-4-hydroxypyrrolidine-2-carboxamide], 45.6 µM.
As to `NCCC(=O)N[C@H]1CC[C@H](NC(=O)[C@H]2C[C@H](O)CN2)CC1` [compound 434, (2R,4S)-N-((1r,4r)-4-(3-aminopropanamido)cyclohexyl)-4-hydroxypyrrolidine-2-carboxamide], the IC50 was above 100 µM.
Take `N[C@H]1CC[C@H](NC(=O)[C@H]2C[C@H](O)CN2)CC1` [compound 435, (2R,4S)-N-((1r,4r)-4-aminocyclohexyl)-4-hydroxypyrrolidine-2-carboxamide]: the IC50 is above 100 µM.
Take `N[C@H]1CC[C@H](NC(=O)[C@H]2CCc3ccccc3N2)CC1` [compound 436, (R)-N-((1r,4r)-4-aminocyclohexyl)-1,2,3,4-tetrahydroquinoline-2-carboxamide]: the IC50 is 12.5 µM.
Under `NCCC(=O)N[C@H]1CC[C@H](NC(=O)c2ccc(N)cn2)CC1` [compound 437, 5-amino-N-((1r,4r)-4-(3-aminopropanamido)cyclohexyl)picolinamide] stands above 100 µM; under `Nc1ccc(C(=O)N[C@H]2CC[C@H](N)CC2)nc1` [compound 438, 5-amino-N-((1r,4r)-4-aminocyclohexyl)picolinamide], above 100 µM.
The same measure for `NCCC(=O)N[C@H]1CC[C@H](NC(=O)c2ccc(Cl)cc2C(F)(F)F)CC1` [compound 439, N-((1r,4r)-4-(3-aminopropanamido)cyclohexyl)-4-chloro-2-(trifluoromethyl)benzamide]: above 100 µM; for `NCCC(=O)N[C@H]1CC[C@H](NC(=O)c2cccc3c2OC(F)(F)O3)CC1` [compound 440, N-((1r,4r)-4-(3-aminopropanamido)cyclohexyl)-2,2-difluorobenzo[d][1,3]dioxole-4-carboxamide]: above 100 µM; for `CC(NC(=O)c1cc2cccc(O)c2cc1O)C1CCN(C(=O)[C@H](C)N)CC1` (stereo partly drawn) [compound 441, N-(1-(1-(L-alanyl)piperidin-4-yl)ethyl)-3,5-dihydroxy-2-naphthamide]: 37.5 µM.
In the case of `NCCC(=O)N[C@H]1CC[C@H](NC(=O)c2cncs2)CC1` [compound 442, N-((1r,4r)-4-(3-aminopropanamido)cyclohexyl)thiazole-5-carboxamide], the half-inhibitory concentration (IC50) is above 100 µM.
Under `NCCC(=O)N[C@H]1CC[C@H](NC(=O)Cc2cc(F)cc(F)c2)CC1` [compound 443, 3-amino-N-((1r,4r)-4-(2-(3,5-difluorophenyl)acetamido)cyclohexyl)propanamide] stands above 100 µM.
Under `CC(=O)Nc1ccc(C(=O)N[C@H]2CC[C@H](N)CC2)nc1` [compound 444, 5-acetamido-N-((1r,4r)-4-aminocyclohexyl)picolinamide] stands above 100 µM; under `CC(NC(=O)c1cn2ncccc2n1)C1CCN(C(=O)[C@H](C)N)CC1` (stereo partly drawn) [compound 445, N-(1-(1-(L-alanyl)piperidin-4-yl)ethyl)imidazo[1,2-b]pyridazine-2-carboxamide], above 100 µM.
Consider `NCCC(=O)N[C@H]1CC[C@H](NC(=O)c2cn3ncccc3n2)CC1` [compound 446, N-((1r,4r)-4-(3-aminopropanamido)cyclohexyl)imidazo[1,2-b]pyridazine-2-carboxamide], for which the 50% inhibitory concentration (IC50) was above 100 µM.
Take `N[C@H]1CC[C@H](NC(=O)c2cn3ncccc3n2)CC1` [compound 447, N-((1r,4r)-4-aminocyclohexyl)imidazo[1,2-b]pyridazine-2-carboxamide]: the IC50 was above 100 µM.
Turning to `N[C@H]1CC[C@H](NC(=O)Cc2ccc3c(c2)CC(=O)N3)CC1` [compound 448, N-((1r,4r)-4-aminocyclohexyl)-2-(2-oxoindolin-5-yl)acetamide], the IC50 is above 100 µM.
The same measure for `NCCC(=O)N[C@H]1CC[C@H](NS(=O)(=O)c2ccc3c(c2)CC(=O)N3)CC1` [compound 449, 3-amino-N-((1r,4r)-4-((2-oxoindoline)-5-sulfonamido)cyclohexyl)propanamide]: above 100 µM; for `CC1Oc2ccc(C(=O)NC(C)C3CCN(C(=O)[C@H](C)N)CC3)cc2NC1=O` (stereo partly drawn) [compound 450, N-(1-(1-(L-alanyl)piperidin-4-yl)ethyl)-2-methyl-3-oxo-3,4-dihydro-2H-benzo[b][1,4]oxazine-6-carboxamide]: 25.4 µM.

These data come from patent US10266526B2, “Substituted 1,2,3-triazoles as SMYD inhibitors for treating cancer” (EPIZYME, INC., priority 2014, dated 2019).
